Literature values as cited in US20060008806A1, “Method for producing novel DNA sequence with biological activity” (University of Washington, priority 1986, published 2006).

System: β-lactamases
Conditions: Labia, et al., 1979
For CC1(C)S[C@@H]2[C@H](NC(=O)[C@H](N)c3ccccc3)C(=O)N2[C@H]1C(=O)O [ampicillin], the Km is listed as 31 µM. In the case of CC1(C)S[C@@H]2[C@H](NC(=O)Cc3ccccc3)C(=O)N2[C@H]1C(=O)O [benzylpenicillin], the Km is listed as 21 µM. In the case of CC1(C)S[C@@H]2[C@H](NC(=O)C(C(=O)O)c3ccccc3)C(=O)N2[C@H]1C(=O)O (stereo partly drawn) [carbenicillin], the Km is listed as 10 µM.
